Assay [1] concerns the target Calcium/calmodulin-dependent protein kinase type 1D (Homo sapiens) (UniProt Q8IU85). The settings on record: at 10 µM.
The target of assay [2] is T1, Mitogen-activated protein kinase kinase kinase 5 (Homo sapiens) (UniProt Q99683).
T1 sequence (whole entry): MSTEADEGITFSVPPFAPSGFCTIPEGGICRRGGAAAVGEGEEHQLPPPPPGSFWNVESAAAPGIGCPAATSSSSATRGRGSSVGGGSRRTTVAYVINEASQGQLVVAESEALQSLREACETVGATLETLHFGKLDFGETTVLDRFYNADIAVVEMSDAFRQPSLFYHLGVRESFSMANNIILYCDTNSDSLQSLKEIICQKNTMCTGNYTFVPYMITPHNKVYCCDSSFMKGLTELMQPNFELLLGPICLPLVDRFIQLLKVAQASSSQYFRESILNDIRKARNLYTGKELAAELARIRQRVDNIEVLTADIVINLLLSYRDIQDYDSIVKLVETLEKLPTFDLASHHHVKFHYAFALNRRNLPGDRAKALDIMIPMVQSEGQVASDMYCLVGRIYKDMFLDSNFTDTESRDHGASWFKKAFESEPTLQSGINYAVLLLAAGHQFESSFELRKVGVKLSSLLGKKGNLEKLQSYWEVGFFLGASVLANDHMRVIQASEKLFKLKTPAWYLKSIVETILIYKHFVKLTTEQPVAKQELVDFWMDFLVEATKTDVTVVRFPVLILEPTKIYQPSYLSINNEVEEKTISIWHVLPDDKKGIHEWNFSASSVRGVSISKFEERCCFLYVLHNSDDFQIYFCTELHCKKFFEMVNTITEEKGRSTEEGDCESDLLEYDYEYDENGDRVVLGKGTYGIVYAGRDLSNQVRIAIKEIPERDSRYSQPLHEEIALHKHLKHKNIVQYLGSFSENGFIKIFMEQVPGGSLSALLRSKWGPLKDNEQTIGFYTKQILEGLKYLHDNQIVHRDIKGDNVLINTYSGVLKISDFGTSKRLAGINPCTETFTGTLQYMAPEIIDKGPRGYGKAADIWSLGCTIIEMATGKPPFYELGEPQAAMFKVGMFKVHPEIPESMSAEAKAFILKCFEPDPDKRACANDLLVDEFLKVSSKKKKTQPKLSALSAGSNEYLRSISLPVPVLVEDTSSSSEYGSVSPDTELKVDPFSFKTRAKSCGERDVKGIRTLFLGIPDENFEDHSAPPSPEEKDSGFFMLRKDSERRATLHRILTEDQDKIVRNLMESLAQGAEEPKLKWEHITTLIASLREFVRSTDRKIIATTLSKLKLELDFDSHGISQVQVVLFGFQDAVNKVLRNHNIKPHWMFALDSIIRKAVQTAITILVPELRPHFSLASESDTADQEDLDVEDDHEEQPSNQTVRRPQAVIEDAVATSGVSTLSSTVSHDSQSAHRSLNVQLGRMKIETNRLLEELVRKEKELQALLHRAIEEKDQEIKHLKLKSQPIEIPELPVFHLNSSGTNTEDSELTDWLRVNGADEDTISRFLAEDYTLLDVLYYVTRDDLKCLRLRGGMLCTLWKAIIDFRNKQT
The assay can be described thus: Selectivity interaction (KinomeScan (DiscoverX)) EUB0001079a MAP3K5. To be noted: at 1 µM.

The target in assay [3] is T2, Serine/threonine-protein kinase D1 (Homo sapiens) (UniProt Q15139).
T2 sequence (whole entry): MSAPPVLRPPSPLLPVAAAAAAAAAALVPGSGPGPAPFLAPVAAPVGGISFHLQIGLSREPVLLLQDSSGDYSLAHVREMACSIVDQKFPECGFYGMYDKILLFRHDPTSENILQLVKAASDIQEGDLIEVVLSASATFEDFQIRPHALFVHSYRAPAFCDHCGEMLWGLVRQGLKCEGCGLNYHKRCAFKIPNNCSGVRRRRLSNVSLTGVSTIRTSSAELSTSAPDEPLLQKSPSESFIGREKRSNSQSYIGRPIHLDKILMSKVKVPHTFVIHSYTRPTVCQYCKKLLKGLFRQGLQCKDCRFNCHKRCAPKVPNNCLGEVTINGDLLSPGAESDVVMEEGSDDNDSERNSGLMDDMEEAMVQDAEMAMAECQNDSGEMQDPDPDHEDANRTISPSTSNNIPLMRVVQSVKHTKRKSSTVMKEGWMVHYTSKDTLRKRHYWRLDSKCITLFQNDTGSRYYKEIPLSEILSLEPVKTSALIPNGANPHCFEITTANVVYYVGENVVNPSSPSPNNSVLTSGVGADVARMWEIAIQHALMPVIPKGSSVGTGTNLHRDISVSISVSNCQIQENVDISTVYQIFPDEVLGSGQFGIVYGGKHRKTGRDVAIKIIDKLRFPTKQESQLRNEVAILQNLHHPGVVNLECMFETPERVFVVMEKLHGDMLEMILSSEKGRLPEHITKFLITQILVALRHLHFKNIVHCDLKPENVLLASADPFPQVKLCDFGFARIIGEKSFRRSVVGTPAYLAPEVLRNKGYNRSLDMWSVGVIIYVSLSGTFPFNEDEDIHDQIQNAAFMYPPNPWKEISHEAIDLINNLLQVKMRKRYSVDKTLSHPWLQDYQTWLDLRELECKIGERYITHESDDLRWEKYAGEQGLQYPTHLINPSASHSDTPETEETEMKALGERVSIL
The assay can be described thus: Selectivity interaction (KinomeScan (DiscoverX)) EUB0000092b PRKD1. The settings on record: at 10 µM.

In assay [4] the target is Vascular endothelial growth factor receptor 1 (Homo sapiens) (UniProt P17948). The assay can be described thus: Selectivity interaction (KinomeScan (DiscoverX)) EUB0000695a FLT1. The settings on record: at 100 nM.
Assay [5] addresses T3, Tyrosine-protein kinase Tec (Homo sapiens) (UniProt P42680).
T3 sequence (whole entry): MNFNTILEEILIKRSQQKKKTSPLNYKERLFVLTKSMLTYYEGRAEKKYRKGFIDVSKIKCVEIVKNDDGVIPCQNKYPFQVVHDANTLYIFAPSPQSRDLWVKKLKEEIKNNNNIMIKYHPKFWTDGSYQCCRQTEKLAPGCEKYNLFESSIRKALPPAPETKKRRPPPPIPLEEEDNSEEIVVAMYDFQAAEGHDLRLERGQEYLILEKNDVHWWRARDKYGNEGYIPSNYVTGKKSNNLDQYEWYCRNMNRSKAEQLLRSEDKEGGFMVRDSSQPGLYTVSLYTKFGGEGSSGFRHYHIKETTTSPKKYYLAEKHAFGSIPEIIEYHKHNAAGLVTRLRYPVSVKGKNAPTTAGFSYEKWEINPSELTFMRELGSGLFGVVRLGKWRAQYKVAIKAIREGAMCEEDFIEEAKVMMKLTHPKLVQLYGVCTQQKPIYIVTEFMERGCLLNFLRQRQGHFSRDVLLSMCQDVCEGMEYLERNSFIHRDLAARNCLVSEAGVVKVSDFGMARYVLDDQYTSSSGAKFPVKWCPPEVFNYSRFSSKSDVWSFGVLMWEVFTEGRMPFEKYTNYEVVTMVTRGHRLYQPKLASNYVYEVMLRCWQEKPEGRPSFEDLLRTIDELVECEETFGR
The assay can be described thus: Selectivity interaction (KinomeScan (DiscoverX)) EUB0000618a TEC. To be noted: at 10 µM.

The values that follow come from ChEMBL document CHEMBL5465560, “Selectivity Literature for EUbOPEN Chemogenomic Library” (2024).

Chain of Calcium/calmodulin-dependent protein kinase type 1D (Homo sapiens) (Q8IU85 whole entry, looked up): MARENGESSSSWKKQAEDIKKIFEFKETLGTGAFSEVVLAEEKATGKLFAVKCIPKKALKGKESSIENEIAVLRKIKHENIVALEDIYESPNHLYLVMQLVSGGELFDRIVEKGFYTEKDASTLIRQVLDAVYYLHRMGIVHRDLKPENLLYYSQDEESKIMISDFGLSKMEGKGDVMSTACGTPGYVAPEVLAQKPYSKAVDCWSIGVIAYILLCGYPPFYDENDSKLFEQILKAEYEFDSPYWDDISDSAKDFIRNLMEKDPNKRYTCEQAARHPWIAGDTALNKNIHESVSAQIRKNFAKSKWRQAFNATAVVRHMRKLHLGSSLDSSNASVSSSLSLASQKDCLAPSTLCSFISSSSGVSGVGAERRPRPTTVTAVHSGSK
Chain of Vascular endothelial growth factor receptor 1 (Homo sapiens) (P17948 whole entry): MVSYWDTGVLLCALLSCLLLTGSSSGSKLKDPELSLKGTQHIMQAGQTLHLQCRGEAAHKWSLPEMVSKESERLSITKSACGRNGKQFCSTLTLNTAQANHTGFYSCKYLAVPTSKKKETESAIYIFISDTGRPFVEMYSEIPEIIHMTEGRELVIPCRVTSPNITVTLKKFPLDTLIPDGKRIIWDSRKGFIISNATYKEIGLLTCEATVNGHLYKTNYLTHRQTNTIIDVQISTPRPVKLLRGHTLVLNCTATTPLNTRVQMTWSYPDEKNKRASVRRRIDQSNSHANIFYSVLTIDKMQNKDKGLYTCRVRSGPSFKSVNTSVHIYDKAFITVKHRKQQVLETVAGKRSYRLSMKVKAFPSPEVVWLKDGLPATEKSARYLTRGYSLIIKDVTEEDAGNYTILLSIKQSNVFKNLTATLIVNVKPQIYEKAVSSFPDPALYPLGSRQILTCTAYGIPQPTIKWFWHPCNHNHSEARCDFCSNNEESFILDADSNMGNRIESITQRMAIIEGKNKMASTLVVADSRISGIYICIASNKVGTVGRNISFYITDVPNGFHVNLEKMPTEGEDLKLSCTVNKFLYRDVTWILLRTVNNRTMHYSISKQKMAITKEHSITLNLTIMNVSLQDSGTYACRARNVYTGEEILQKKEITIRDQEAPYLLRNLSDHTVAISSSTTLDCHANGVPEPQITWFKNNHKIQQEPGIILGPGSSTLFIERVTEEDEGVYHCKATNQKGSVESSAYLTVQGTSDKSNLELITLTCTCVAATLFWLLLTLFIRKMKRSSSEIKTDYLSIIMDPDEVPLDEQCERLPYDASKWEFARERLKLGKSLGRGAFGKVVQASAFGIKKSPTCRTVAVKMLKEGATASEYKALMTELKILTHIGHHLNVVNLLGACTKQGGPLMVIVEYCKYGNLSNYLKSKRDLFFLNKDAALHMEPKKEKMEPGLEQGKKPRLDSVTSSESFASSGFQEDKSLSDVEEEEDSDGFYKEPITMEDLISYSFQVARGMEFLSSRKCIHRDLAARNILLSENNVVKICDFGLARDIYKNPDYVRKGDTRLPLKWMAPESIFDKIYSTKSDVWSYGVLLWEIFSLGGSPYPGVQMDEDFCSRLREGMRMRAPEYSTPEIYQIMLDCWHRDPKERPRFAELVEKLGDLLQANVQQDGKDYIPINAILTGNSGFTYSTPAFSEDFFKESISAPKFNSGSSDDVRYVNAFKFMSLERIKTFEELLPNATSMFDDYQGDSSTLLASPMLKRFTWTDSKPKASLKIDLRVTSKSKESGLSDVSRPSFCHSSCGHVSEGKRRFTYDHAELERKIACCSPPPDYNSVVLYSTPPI

Consider `Cc1cc([C@@H](C)Nc2ccccc2C(=O)O)c2nc(N3CCOCC3)cc(=O)n2c1` [AZD-6482], for which the % of control in assay [1] turned out to be 100%.

Consider `Nc1cnc(N2CCc3cc(S(=O)(=O)Nc4c(F)cc(Cl)cc4F)cc(N4CCCC4=O)c32)nc1` [TP-020n], for which the % of control in assay [2] amounted to 83%.

`CCC(=O)N1CCN(c2ccc(-n3c(=O)ccc4cnc5ccc(-c6cnc7ccccc7c6)cc5c43)cc2C(F)(F)F)CC1` returned a % of control in assay [3] of 99%.

Regarding `Cc1cc(F)c(C(=O)Nc2cccc(-c3nncn3C(C)C)n2)cc1-n1cnc(C2CC2)c1`, the % of control in assay [4] was 100%.

In the case of `O[C@H]1CC[C@H](Nc2ncc3nc(Nc4c(F)cc(F)cc4F)n([C@H]4CCOC4)c3n2)CC1`, the % of control in assay [5] is 100%.
